The values that follow come from US11161803B2, “Ammonium carboxylate compound, crystalline form, amorphous form and preparation method thereof” (priority 2017, dated 2021).

Structures can show the parent of a compound that is named as a salt.

What all share (format): physicochemical
Data set [1] can be described thus: Water adsorption and desorption test (DVS, hygroscopicity). The settings on record: 25° C.; for change of hygroscopicity: under 80% humidity. On the procedure: DVS detection of the ammonium salt: instrument model: TA Q5000SA, balance at 25° C., humidity start from 0.00%, balance for 180 min, balance for 15 min when the weight gain is less than 0.01%, 10% gradient humidity increase from 0.00% to 90.00%, each gradient maintained for 120 min; a 10% gradient humidity reduction procedure performed when the humidity is from 90.00% to 0.00%, each gradient maintained for 120 min.
DVS detection of other products: instrument model: SMS DVS Intrinsic, 0-95% RH, temperature: 25° C.
The water adsorption and desorption tests of the compound (A) of example 1 at 25° C., 0 to 95% relative humidity were carried out by a dynamic water adsorber (DVS) to determine the hygroscopicity of the compound of formula (A).
The water adsorption and desorption experiments of the crystalline form I of the compound of formula (A) prepared by methods of example 3 at 25° C., 0 to 95% relative humidity were carried out by a dynamic water adsorber (DVS) to determine the hygroscopicity of the crystalline form I of the compound of formula (A).
The water adsorption and desorption experiments of the sample of example 6 at 25° C., 0 to 95% relative humidity were carried out by a dynamic water adsorber (DVS) to determine the hygroscopicity of the amorphous form of the compound of formula (A).

A short description of data set [2]: Stability comparison test (main peak purity of the samples on storage). The settings on record: for decrease of purity: at 25° C. 60 days later. The procedure: Each portion was about 100 mg, placed in a zip-lock bag and added with a desiccant, then three-layer packaged by a two-layer aluminum plastic material with each layer vacuumed, and stored at 25° C. (relative humidity 60%) and 40° C. […] Relevant substances of the samples were respectively determined at 0 day, 30 days, and 60 days later.

Test in data set [3]: as above
The settings on record: at 60° C. 60 days later (so in the source).

Data set [4] is described as follows: Solid form and hygroscopicity of the salts as obtained (comparative examples). The settings on record: for hygroscopicity (in words) / solid form (in words): product as obtained. On the procedure: (§1) A crude product of ethyl (2R,4S)-5-(biphenyl-4-yl)-4-[(3-carboxypropionyl)amino]-2-methylpentanoate (52.4 g, 0.125 mol) and acetone (629 ml) were added to a 1 L three-necked flask equipped with a mechanical stirrer, stirred and dissolved at room temperature; cooled to 0-10° C. for 5-10 min, added dropwise with potassium hydroxide solution (25 ml, 5 mol/L), after the addition was completed, kept stirring for 1 h, concentrated to dryness, added with methanol (125 ml) or ethanol (125 ml), concentrated to dryness to give potassium 4((2S,4R)-1-([1,1′-biphenyl]-4-yl)-5-ethoxy-4-methyl-5-oxopentan-2-yl)amino)-4-oxobutanoate (AHU-377 potassium salt).
as §1, with “min and” for “min,”, “sodium” for “potassium”, “sodium 4-(((2S,4R)-1-([1,1′-biphenyl]-4-yl)-5-ethoxy-4-methyl-5-oxopentan-2-yl)amino)-4-oxobutyrate” for “potassium 4((2S,4R)-1-([1,1′-biphenyl]-4-yl)-5-ethoxy-4-methyl-5-oxopentan-2-yl)amino)-4-oxobutanoate”
A crude product of ethyl (2R,4S)-5-(biphenyl-4-yl)-4-[(3-carboxypropionyl)amino]-2-methylpentanoate (52.4 g, 0.125 mol) and acetone (629 ml) were added to a 1 L three-necked flask equipped with a mechanical stirrer, stirred and dissolved at room temperature: cooled to 0-10° C. for 5-10 min and added dropwise with a basic ammonium salt such as choline (15 g, 0.125 mol), after the addition was completed, kept stirring for 1 h, concentrated to dryness, added with methanol (125 ml) or ethanol (125 ml), and concentrated to dryness.

Data set [5] in a line: Drug interaction test: stability of the mixture of crystalline form I of the compound of formula (A) + compound of formula (B). The source says:
The applicant has found through repeated studies in the research of drug compatibility that the compound of formula (A), the crystalline form I, single crystal, amorphous form, crystalline form II thereof have good compatibility with the compound of formula (I) described in CN103709154A. A specific compound of formula (B) was selected to be mixed with the crystalline form I of the compound of formula (A) prepared in example 3 of the present disclosure for further stability studies.

Setting [6] is: 25° C. (relative humidity 60%), test time 0 day.
[7] abbreviates: 25° C. (relative humidity 60%), test time 30 days.
Setting [8] is: 25° C. (relative humidity 60%), test time 60 days.
The mark [9] stands for this setting: 40° C. (relative humidity 75%), test time 0 day.
[10] abbreviates: 40° C. (relative humidity 75%), test time 30 days.
[11] abbreviates: 40° C. (relative humidity 75%), test time 60 days.

Turning to `CCOC(=O)C(C)CC(Cc1ccc(-c2ccccc2)cc1)NC(=O)CCC(=O)O` (stereo not shown), the “change of the form in DVS” value in data set [1] (range of 0 to 95% relative humidity, FIG. 15) is “do not change”.
In the case of `CCOC(=O)[C@H](C)C[C@@H](Cc1ccc(-c2ccccc2)cc1)NC(=O)CCC(=O)O` [AHU-377 potassium salt], the main peak purity in data set [2] (setting [6]) is reported as 93.63%; in data set [2] (setting [7]) it was 93.31%; in data set [2] (setting [8]), 93.28%; in data set [2] (setting [9]), 94.11%; in data set [2] (setting [10]), 94.05%; in data set [2] (setting [11]) it was 93.37%. Also, the decrease of purity in data set [2] was 0.35%; in data set [3] it was 0.74%. Also, in data set [4], the “hygroscopicity (in words)” value is reported as “highly hygroscopic”. Besides, the “solid form (in words)” value in data set [4] is “failed to exhibit a good solid form”.
On to `CCOC(=O)[C@H](C)C[C@@H](Cc1ccc(-c2ccccc2)cc1)NC(=O)CCC(=O)[O-].[Na+]` [AHU-377 sodium salt, sodium 4-(((2S,4R)-1-([1,1′-biphenyl]-4-yl)-5-ethoxy-4-methyl-5-oxopentan-2-yl)amino)-4-oxobutyrate], for which the main peak purity in data set [2] (setting [6]) stood at 94.12%; in data set [2] (setting [7]), 94.16%; in data set [2] (setting [8]) it was 93.75%; in data set [2] (setting [9]) it was 94.12%; in data set [2] (setting [10]), 94.06%; in data set [2] (setting [11]), 93.86%. Besides, the figures for the decrease of purity in data set [2] and in data set [3] were 0.37% and 0.26%, respectively. In addition, in data set [4], the “hygroscopicity (in words)” value is given as “highly hygroscopic despite less hygroscopic than potassium salt”. Moreover, the “solid form (in words)” value in data set [4] is listed as “does not exhibit a good solid form”.
Consider `CCOC(=O)C(C)CC(Cc1ccc(-c2ccccc2)cc1)NC(=O)CCC(=O)O` [Compound of formula (A), ammonium 4-((2S,4R)-1-([1, l′-biphenyl]-4-yl)-5-ethoxy-4-methyl-5-oxopentan-2-yl)amino)-4-oxobutanoate], for which the hygroscopicity result in data set [1] (DVS, 0 to 95% relative humidity, FIG. 26) is on record as “less than 2%”. The “stability compared with the potassium salt and the sodium salt of AHU-377” value in data set [2] is reported as “far superior”. The main peak purity in data set [2] (setting [6]) is recorded as 99.82%; in data set [2] (setting [7]), 99.80%; in data set [2] (setting [8]), 99.82%; in data set [2] (setting [9]), 99.82%; in data set [2] (setting [10]) it was 99.68%; in data set [2] (setting [11]), 99.58%. Besides, the figures for the decrease of purity result in data set [2] and in data set [3] were “almost unchanged” and 0.24%, respectively. Further, the “stability compared with the organic ammonium salt of AHU-377” value in data set [2] (by comparison in the same experiment) is “superior”.
In the case of `CCOc1nc2cccc(C(=O)OC(C)OC(=O)OCc3nc(C)c(C)nc3C)c2n1Cc1ccc(-c2ccccc2-c2noc(=O)[n-]2)cc1.[K+]` (stereo not shown) [Formula (B)], the “stability of the potassium salt of formula (B) in the mixture with crystalline form I compared with formula (B) as a single component” value in data set [5] is “superior”. The “Maximum unknown single impurity” value in data set [5] (test time 0 day) is reported as 0.05%; in data set [5] (test time 30 days) it was 0.05%; in data set [5] (test time 60 days), 0.06%; in data set [5] (test time 90 days) it was 0.04%. The Total impurities was found to be 0.72% in data set [5] (test time 0 day), 1.29% in data set [5] (test time 30 days), 1.67% in data set [5] (test time 60 days) and 1.99% in data set [5] (test time 90 days).
For the compound `CCOC(=O)C(C)CC(Cc1ccc(-c2ccccc2)cc1)NC(=O)CCC(=O)O` (stereo not shown) [crystalline form I of the compound of formula (A)], in data set [1] (DVS), the change of hygroscopicity entry is recorded as “do not change much”. Moreover, the “hygroscopicity compared with AHU-377 sodium salt and AHU-377 potassium salt” value in data set [4] is “significantly more hygroscopic”.
Regarding `CCOC(=O)C(C)CC(Cc1ccc(-c2ccccc2)cc1)NC(=O)CCC(=O)O` (stereo not shown) [crystalline form II], the change of hygroscopicity result in data set [1] (DVS) is “changes very little”.
With `CCOC(=O)[C@H](C)C[C@@H](Cc1ccc(-c2ccccc2)cc1)NC(=O)CCC(=O)O` [organic ammonium salt of 4 ((2S,4R)-1-([1,1′-biphenyl]-4-yl)], in data set [4], the “hygroscopicity (in words)” value is “high hygroscopicity” and the “solid form (in words)” value is on record as “cannot be obtained in a solid form”.
